Columns and labels:
[1] = cited from earlier work
[2] = estimated; absolute bioavailability could not be determined; cited from earlier work
[3] = solubility in supercritical fluid (CO2 or tetrafluoroethane); type: physicochemical; settings: supercritical CO2, FIG. 1
Source text: From among these supercritical fluids, mention may be made of CO2: the technology of supercritical CO2 is based on the solvent power of CO2 which may be modulated at will depending on the pressure and temperature conditions applied to it.
A method for extraction with supercritical CO2 operates in a closed circuit. It includes pressurizing units (pumps) and a temperature-setting unit (exchangers) in order to bring CO2 above its critical point.
The product to be treated is placed in an extractor crossed by the supercritical CO2 flow. Molecules which are soluble in supercritical CO2, therefore extractable, are not very polar compounds with a low molecular mass.
The table below repeats the result when using S modafinil, and mannitol instead of anhydrous lactose; further the loading level was increased to about 30%.

[4] = cited from earlier work; remark: listed apart in the source

Row | SMILES | AUC compared with the racemic form ([1]; after administration) | variability in plasma levels compared with the racemic form ([1]; after administration) | bioavailability [2] | elimination half life ([1]; in humans) | solubility in CO2 [3] | solubility in methanol and acetone ([4]; methanol and acetone) | solubility in water ([4]; water)
1 | NC(=O)C[S@@+]([O-])C(c1ccccc1)c1ccccc1 (single isomer, unassigned) [levo-rotatory enantiomer (R)] | larger AUC than the racemic form | less variability | – | – | – | – | –
2 | NC(=O)C[S+]([O-])C(c1ccccc1)c1ccccc1 (racemic) [Modafinil] | – | – | about 40% | about 14 hours | acceptable solubility | partly soluble | practically insoluble
